# Patent publication US7297700B2, “Bicycloheteroaryl compounds as P2X7 modulators and uses thereof” (Renovis, Inc., priority 2005, dated 2007)
# Test system: IL-1β release from THP-1 cells
# Assay: IL-1β Release Assay (Alternate Method), THP-1 cells
# Type: cell-based, human
# Conditions: Homo sapiens, THP-1, read-out: IL-1β % inhibition
# In short: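 IL-1β release, measured by ELISA, follows 45 min BzATP (250 uM final) stimulation of THP-1 cells given 30 min compound pretreatment. Cells were first primed 16 h with LPS and IFN-γ (100 ng/mL each), then 2 h with fresh LPS; inhibition expressed in percent after background correction.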
row,Structure (SMILES),inhibition at 0.3 µM [%]
1,"O=C(Nc1ncnc2c1CCN(Cc1ccccc1)C2)C12CC3CC(CC(C3)C1)C2 [Compound 334, Adamantane-1-carboxylic acid(7-benzyl-5,6,7,8-tetrahydro-pyrido[3,4-d]pyrimidin-4-yl)-amide]",50 to 75

# Same assay, conditions: Homo sapiens; at 0.3 μM; THP-1 cells; read-out: IL-1β % inhibition
row,Structure (SMILES),inhibition at 0.3 µM [%]
1,"CC12CC3CC(C)(C1)CC(CC(=O)Nc1ncnc4c1CCN(Cc1ccccc1)C4)(C3)C2 [Compound 341, N-(7-Benzyl-5,6,7,8-tetrahydro-pyrido[3,4-d]pyrimidin-4-yl)-2-(3,5-dimethyl-adamantan-1-yl)-acetamide]",25 to 50
2,"O=C(CC12CC3CC(CC(C3)C1)C2)Nc1ccnc2c1CCN(Cc1ccccc1)C2 [Compound 342, 2-Adamantan-1-yl-N-(7-benzyl-5,6,7,8-tetrahydro-[1,7]naphthyridin-4-yl)-acetamide]",0 to 25

# Same assay, conditions: at 0.3 μM; THP-1 cells
row,Structure (SMILES),IL-1β % inhibition
1,O=C(CC12CC3CC(CC(C3)C1)C2)Nc1ncnc2c1CCN(Cc1ccc3c(c1)OCO3)C2 [Compound 321],++++ (compound exhibited 75% or greater inhibition at 0.3 μM)
2,O=C(CC12CC3CC(CC(C3)C1)C2)Nc1ncnc2c1CCN(Cc1ccc(F)c(F)c1)C2 [Compound 322],+ (compound exhibited 0-25% inhibition at 0.3 μM)
3,O=C(CC12CC3CC(CC(C3)C1)C2)Nc1ncnc2c1CCN(Cc1ccc(F)c(Cl)c1)C2 [Compound 323],+ (compound exhibited 0-25% inhibition at 0.3 μM)
4,COc1ccc(CN2CCc3c(ncnc3NC(=O)CC34CC5CC(CC(C5)C3)C4)C2)cc1Cl [Compound 324],+ (compound exhibited 0-25% inhibition at 0.3 μM)
5,O=C(CC12CC3CC(CC(C3)C1)C2)Nc1ncnc2c1CCN(Cc1ccc(Cl)c(C(F)(F)F)c1)C2 [Compound 325],+ (compound exhibited 0-25% inhibition at 0.3 μM)
6,O=C(CC12CC3CC(CC(C3)C1)C2)Nc1ncnc2c1CCN(Cc1ccc(F)cc1Cl)C2 [Compound 326],++ (compound exhibited 25-50% inhibition at 0.3 μM)
7,O=C(CC12CC3CC(CC(C3)C1)C2)Nc1ncnc2c1CCN(Cc1ccc(C(F)(F)F)cc1C(F)(F)F)C2 [Compound 327],+ (compound exhibited 0-25% inhibition at 0.3 μM)
8,O=C(CC12CC3CC(CC(C3)C1)C2)Nc1ncnc2c1CCN(Cc1ccc(Cl)cc1F)C2 [Compound 328],+++ (compound exhibited 50-75% inhibition at 0.3 μM)
9,O=C(CC12CC3CC(CC(C3)C1)C2)Nc1ncnc2c1CCN(Cc1ccc(Cl)c(F)c1)C2 [Compound 329],+++ (compound exhibited 50-75% inhibition at 0.3 μM)
10,COc1cc(OCc2ccccc2)ccc1CN1CCc2c(ncnc2NC(=O)CC23CC4CC(CC(C4)C2)C3)C1 [Compound 330],+++ (compound exhibited 50-75% inhibition at 0.3 μM)
11,O=C(CC12CC3CC(CC(C3)C1)C2)Nc1ncnc2c1CCN(Cc1ccc3cc[nH]c3c1)C2 [Compound 332],+++ (compound exhibited 50-75% inhibition at 0.3 μM)
12,O=C(CC12CC3CC(CC(C3)C1)C2)Nc1ncnc2c1CCN(Cc1ccc3c(c1)OCCCO3)C2 [Compound 333],+++ (compound exhibited 50-75% inhibition at 0.3 μM)
13,COc1cccc(CN2CCc3c(ncnc3C(=O)NCC34CC5CC(CC(C5)C3)C4)C2)c1 [Compound 335],++ (compound exhibited 25-50% inhibition at 0.3 μM)
14,Cc1ccccc1CN1CCc2c(ncnc2C(=O)NCC23CC4CC(CC(C4)C2)C3)C1 [Compound 336],++++ (compound exhibited 75% or greater inhibition at 0.3 μM)
15,O=C(NCC12CC3CC(CC(C3)C1)C2)c1ncnc2c1CCN(Cc1ccccc1Cl)C2 [Compound 337],++ (compound exhibited 25-50% inhibition at 0.3 μM)
16,O=C(NCC12CC3CC(CC(C3)C1)C2)c1ncnc2c1CCN(Cc1ccc(F)cc1)C2 [Compound 338],++++ (compound exhibited 75% or greater inhibition at 0.3 μM)
17,CC(C)(C(=O)Nc1ncnc2c1CCN(Cc1ccccc1)C2)C12CC3CC(CC(C3)C1)C2 [Compound 339],+ (compound exhibited 0-25% inhibition at 0.3 μM)
18,O=C(NCC12CC3CC(CC(C3)C1)C2)c1ncnc2c1CCN(Cc1ccc3c(c1)OCO3)C2 [Compound 340],+++ (compound exhibited 50-75% inhibition at 0.3 μM)

row,Structure (SMILES),IL-1β % inhibition
1,CC12CC3CC(C)(C1)CC(C(C)(C)C(=O)Nc1ncnc4c1CCN(Cc1ccccc1)C4)(C3)C2 [Compound 343],+ (compound exhibited 0-25% inhibition at 0.3 μM)
2,CC12CC3(C)CC(C)(C1)CC(CC(=O)Nc1ncnc4c1CCN(Cc1ccccc1)C4)(C2)C3 [Compound 344],+ (compound exhibited 0-25% inhibition at 0.3 μM)
3,CC12CC3(C)CC(C)(C1)CC(C(C)(C)C(=O)Nc1ncnc4c1CCN(Cc1ccccc1)C4)(C2)C3 [Compound 345],+ (compound exhibited 0-25% inhibition at 0.3 μM)
4,CC12CC3(C)CC(C)(C1)CC(C(=O)Nc1ncnc4c1CCN(Cc1ccccc1)C4)(C2)C3 [Compound 346],+ (compound exhibited 0-25% inhibition at 0.3 μM)
5,CC(C)(C(=O)Nc1ncnc2c1CCN(Cc1ccc(F)cc1F)C2)C12CC3CC(CC(C3)C1)C2 [Compound 347],+ (compound exhibited 0-25% inhibition at 0.3 μM)
6,CC(C)(C(=O)Nc1ncnc2c1CCN(Cc1ccccc1Cl)C2)C12CC3CC(CC(C3)C1)C2 [Compound 348],+ (compound exhibited 0-25% inhibition at 0.3 μM)
7,Cc1ccccc1CN1CCc2c(ncnc2NC(=O)C(C)(C)C23CC4CC(CC(C4)C2)C3)C1 [Compound 349],+ (compound exhibited 0-25% inhibition at 0.3 μM)
8,CC(C)(C(=O)Nc1ncnc2c1CCN(Cc1ccc3c(c1)OCCO3)C2)C12CC3CC(CC(C3)C1)C2 [Compound 350],+ (compound exhibited 0-25% inhibition at 0.3 μM)
9,CC(C)(C(=O)Nc1ncnc2c1CCN(Cc1ccc3cc[nH]c3c1)C2)C12CC3CC(CC(C3)C1)C2 [Compound 351],+ (compound exhibited 0-25% inhibition at 0.3 μM)
10,CC(C)(C(=O)Nc1ncnc2c1CCN(Cc1ccc(F)cc1)C2)C12CC3CC(CC(C3)C1)C2 [Compound 352],+ (compound exhibited 0-25% inhibition at 0.3 μM)
11,CC(C)(C(=O)Nc1ncnc2c1CCN(S(=O)(=O)Cc1ccccc1)C2)C12CC3CC(CC(C3)C1)C2 [Compound 353],+ (compound exhibited 0-25% inhibition at 0.3 μM)
12,CC(C)(C(=O)Nc1ncnc2c1CCN(S(=O)(=O)c1cccc(Cl)c1)C2)C12CC3CC(CC(C3)C1)C2 [Compound 354],+ (compound exhibited 0-25% inhibition at 0.3 μM)
13,CC(C)(C(=O)Nc1ncnc2c1CCN(S(=O)(=O)c1ccc(F)c(F)c1)C2)C12CC3CC(CC(C3)C1)C2 [Compound 355],+ (compound exhibited 0-25% inhibition at 0.3 μM)
14,CC(C)(C(=O)Nc1ncnc2c1CCN(S(=O)(=O)Cc1ccc(Cl)c(Cl)c1)C2)C12CC3CC(CC(C3)C1)C2 [Compound 356],+ (compound exhibited 0-25% inhibition at 0.3 μM)
15,CC(C)(C(=O)Nc1ncnc2c1CCN(S(=O)(=O)Cc1ccc(Cl)cc1)C2)C12CC3CC(CC(C3)C1)C2 [Compound 357],+ (compound exhibited 0-25% inhibition at 0.3 μM)
16,Cc1cccc(C(=O)N2CCc3c(ncnc3NC(=O)C(C)(C)C34CC5CC(CC(C5)C3)C4)C2)c1 [Compound 358],+ (compound exhibited 0-25% inhibition at 0.3 μM)
17,CC(C)(C(=O)Nc1ncnc2c1CCN(C(=O)c1cccc(C(F)(F)F)c1)C2)C12CC3CC(CC(C3)C1)C2 [Compound 359],+ (compound exhibited 0-25% inhibition at 0.3 μM)
